Assay results published in patent US12522635B2, “Amyloid peptide variants” (Loyola Marymount University, priority 2019, dated 2026).
“Also recorded” adds a separate entry of the source. Where a SMILES comes first, the peptide text is derived from it. Bridges are numbered along the chain shown (N, C = ends).

What was measured:
[1] = following injection; Wijesekara et al. 2015; cited from earlier work
human IAPP = target: T1, human IAPP (Homo sapiens, UniProt P10997); conditions: cited from earlier work
T1 sequence (P10997 34-70 limits assumed): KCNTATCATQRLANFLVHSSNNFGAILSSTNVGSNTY

human IAPP (hIAPP) [2] = target: T2, human IAPP (hIAPP) (Homo sapiens, UniProt P10997); assay: Thioflavin T binding assay of hIAPP aggregation when mixed with IAPP peptides; format: biochemical; conditions: peptide mixed with hIAPP; no single assay (thioflavin T and AFM)
T2 construct: This 37 amino acid polypeptide is co-secreted from pancreatic β-islet cells with insulin
T2 sequence (P10997 34-70 limits assumed): T1 sequence (P10997 34-70 limits assumed)
Outline: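 37 μM hIAPP plus 75 μM animal IAPP (2:1) in 20 mM Tris pH 7.4, shaken 200 rpm at 37 °C for 40 min. Aliquots were mixed into 50.0 μM thioflavin T and emission read at 488 nm, with fibrils checked by AFM. Significance vs hIAPP alone was determined by t-test.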

human IAPP (hIAPP) [3] = target: T2, human IAPP (hIAPP); assay: Atomic force microscopy (AFM) of hIAPP fibril formation when mixed with IAPP peptides; format: biochemical; conditions: for inhibition of hIAPP fibril formation, AFM: 37 μM hIAPP and 75 μM peptide, 37° C. with shaking for 40 minutes
Protocol: (§1) Samples labeled with hIAPP contained 40 μM hIAPP. The sample with pramlintide and hIAPP contained a 2:1 molar mixture (80 μM Pramlintide mixed with 40 μM hIAPP). The samples with raccoon IAPP and Pramlintide alone contained 40 μM of the indicated peptides. Each sample was incubated for 40 minutes at 37° C. with shaking; conditions known to promote hIAPP amyloid formation. All scans show raw data with no flattening and are […].
Each sample contained 37 μM hIAPP and 75 μM of the indicated peptide. Samples were incubated at 37° C. with shaking for 40 minutes. All scans show raw data with no flattening and are […].
Each sample contained 37 μM hIAPP mixed with 37 μM of the indicated peptide. Samples were incubated at 37° C. with shaking for 30 minutes before depositing each sample onto freshly cleaved mica.
(§2) Samples of hIAPP with or without animal IAPP were prepared as described in Example 1 and were then incubated with shaking at 37° C. for 40 minutes. After this incubation, 17 μL of each sample was deposited onto freshly cleaved mica. Samples were incubated for 5 minutes at room temperature before washing with 200 μL sterile water. After drying, the samples were scanned using an MFP-3D atomic force microscope (Asylum Research) set on A/C mode and a 240 m silicon cantilever (Olympus).
(§3) Many of the animal IAPP variants are known to likewise form fibrils and yield amyloid-plaques when scanned via AFM. […] This is in spite of the fact that all of these IAPP peptides (except polar bear IAPP) are known to aggregate and form fibrils themselves under these or similar conditions

RIN-m cells = assay: MTT viability assay, peptide alone or mixed with hIAPP; format: cell-based; conditions: for rescue / protection of cells from hIAPP toxicity (words): hIAPP mixed with peptide 1:1, MTT assay
Outline: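 RIN-m cells were exposed to hIAPP alone, each animal IAPP peptide alone, or hIAPP mixed with an animal IAPP for 46 h at 37° C in RPMI-1640 with 10% FBS. Viability by MTT reduction (2 h), formazan solubilized in SDS/DMF and read at 570 nm, relative to untreated cells as 100%.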

[4] = AFM of peptide alone (self-aggregation / fibril formation); format: physicochemical; conditions: for aggregation propensity relative to comparator: comparison of pramlintide with the IAPP peptides; for aggregation / fibril formation of peptide alone, AFM: incubated 40 minutes at 37° C. with shaking
Protocol: as §1, §2, §3

human IAPP (hIAPP) [5] = target: T2, human IAPP (hIAPP); assay: hIAPP aggregation in the presence of human insulin; format: biochemical

Row | Molecule | fasting blood glucose levels and glucose tolerance [1] | decrease of cytotoxicity (literature) (human IAPP) | inhibition of amyloid fibril formation (literature) (human IAPP) | inhibition of hIAPP aggregation (summary statement) (human IAPP (hIAPP) [2]) | inhibition of hIAPP fibril formation, AFM (human IAPP (hIAPP) [3]) | prevention of hIAPP aggregation, AFM (FIG. 5) (human IAPP (hIAPP) [3]; 40 μM hIAPP, pramlintide 80 μM (2:1), 40 minutes at 37° C. with shaking) | rescue / protection of cells from hIAPP toxicity (words) (RIN-m cells) | toxicity of peptide to cells (RIN-m cells; peptide alone, MTT assay, pancreatic (RIN-m) cells) | aggregation propensity relative to comparator [4] | aggregation / fibril formation of peptide alone, AFM [4] | prevention of hIAPP aggregation in the presence of human insulin (human IAPP (hIAPP) [5]) | cell viability, peptide alone (RIN-m cells; 12.8 μM, RIN-m cells, 46 hours, cells alone set to 100%)
1 | ANFLVH (Islet amyloid polypeptide; UniProt P10997 46-51, looked up, fragment) [peptide derived from human IAPP, from Wijesekara et al. 2015] | improve fasting blood glucose levels and glucose tolerance | decrease cytotoxicity | inhibit amyloid fibril formation |  |  |  |  |  |  |  |  | 
2 | CC[C@H](C)[C@H](NC(=O)[C@H](C)NC(=O)CNC(=O)[C@H](CC(C)C)NC(=O)[C@H](CC(N)=O)NC(=O)[C@H](CC(N)=O)NC(=O)[C@H](CO)NC(=O)[C@H](CO)NC(=O)[C@H](CCCNC(=N)N)NC(=O)[C@H](CC(C)C)NC(=O)[C@H](CC(C)C)NC(=O)[C@H](Cc1ccccc1)NC(=O)[C@H](CC(N)=O)NC(=O)[C@H](C)NC(=O)[C@H](CC(C)C)NC(=O)[C@H](CCCNC(=N)N)NC(=O)[C@H](CCC(N)=O)NC(=O)[C@@H](NC(=O)[C@@H](NC(=O)[C@@H]1CSSC[C@H](NC(=O)[C@@H](N)CCCCN)C(=O)N[C@@H](CC(N)=O)C(=O)N[C@@H]([C@@H](C)O)C(=O)N[C@@H](C)C(=O)N[C@@H]([C@@H](C)O)C(=O)N1)C(C)C)[C@@H](C)O)C(=O)N[C@@H](CC(C)C)C(=O)N[C@@H](CO)C(=O)N1CCC[C@H]1C(=O)N[C@H](C(=O)N[C@@H](CC(N)=O)C(=O)N[C@H](C(=O)NCC(=O)N[C@@H](CO)C(=O)N[C@@H](CC(N)=O)C(=O)N[C@H](C(=O)N[C@@H](Cc1ccc(O)cc1)C(N)=O)[C@@H](C)O)C(C)C)[C@@H](C)O [raccoon IAPP] (H-KCNTATCVTQRLANFLLRSSNNLGAILSPTNVGSNTY-NH2; disulfide 2-7 (inferred); N-terminus and C-terminus assumed) |  |  |  | able to inhibit such aggregation; also recorded: inhibit aggregate formation by hIAPP | significant ability to prevent fiber formation | prevented hIAPP from aggregating | protected the RIN-m cells from the toxic effects of hIAPP; also recorded: significant increase in cell viability; also recorded: rescue living cells from the toxic effects of hIAPP | some cellular toxicity | less aggregation-prone than Pramlintide | did not aggregate | prevent hIAPP aggregation in the presence of human insulin | 
3 | CC[C@H](C)[C@H](NC(=O)[C@H](C)NC(=O)CNC(=O)[C@H](Cc1ccccc1)NC(=O)[C@H](CC(N)=O)NC(=O)[C@H](CC(N)=O)NC(=O)[C@H](CO)NC(=O)[C@H](CO)NC(=O)[C@H](Cc1c[nH]cn1)NC(=O)[C@@H](NC(=O)[C@H](CC(C)C)NC(=O)[C@H](Cc1ccccc1)NC(=O)[C@H](CC(N)=O)NC(=O)[C@H](C)NC(=O)[C@H](CC(C)C)NC(=O)[C@H](CCCNC(=N)N)NC(=O)[C@H](CCC(N)=O)NC(=O)[C@@H](NC(=O)[C@H](C)NC(=O)[C@@H]1CSSC[C@H](NC(=O)[C@@H](N)CCCCN)C(=O)N[C@@H](CC(N)=O)C(=O)N[C@@H]([C@@H](C)O)C(=O)N[C@@H](C)C(=O)N[C@@H]([C@@H](C)O)C(=O)N1)[C@@H](C)O)C(C)C)C(=O)N[C@@H](CC(C)C)C(=O)N[C@@H](CO)C(=O)N[C@@H](CO)C(=O)N[C@H](C(=O)N[C@@H](CC(N)=O)C(=O)N[C@H](C(=O)NCC(=O)N[C@@H](CO)C(=O)N[C@@H](CC(N)=O)C(=O)N[C@H](C(=O)N[C@@H](Cc1ccc(O)cc1)C(N)=O)[C@@H](C)O)C(C)C)[C@@H](C)O [hIAPP, reference compound] |  |  |  |  |  |  |  |  |  | forms high-density fibrils |  | 55+/−5%
4 | CC[C@H](C)[C@H](NC(=O)[C@H](C)NC(=O)CNC(=O)[C@@H](NC(=O)[C@H](CC(N)=O)NC(=O)[C@H](CO)NC(=O)[C@H](CO)NC(=O)[C@H](CO)NC(=O)[C@H](CCCNC(=N)N)NC(=O)[C@@H](NC(=O)[C@H](CC(C)C)NC(=O)[C@H](Cc1ccccc1)NC(=O)[C@H](CC(=O)O)NC(=O)[C@H](C)NC(=O)[C@H](CC(C)C)NC(=O)[C@H](CCCNC(=N)N)NC(=O)[C@H](CCC(N)=O)NC(=O)[C@@H](NC(=O)[C@@H](NC(=O)[C@@H]1CSSC[C@H](NC(=O)[C@@H](N)CCCCN)C(=O)N[C@@H](CC(N)=O)C(=O)N[C@@H]([C@@H](C)O)C(=O)N[C@@H](C)C(=O)N[C@@H]([C@@H](C)O)C(=O)N1)C(C)C)[C@@H](C)O)C(C)C)[C@@H](C)CC)C(=O)N[C@@H](Cc1ccc(O)cc1)C(=O)N[C@@H](CO)C(=O)N1CCC[C@H]1C(=O)N[C@H](C(=O)N[C@@H](CC(N)=O)C(=O)N[C@H](C(=O)NCC(=O)N[C@@H](CO)C(=O)N[C@@H](CC(N)=O)C(=O)N[C@H](C(=O)N[C@@H](Cc1ccc(O)cc1)C(N)=O)[C@@H](C)O)C(C)C)[C@@H](C)O [chicken IAPP] (H-KCNTATCVTQRLADFLVRSSSNIGAIYSPTNVGSNTY-NH2; disulfide 2-7 (inferred); N-terminus and C-terminus assumed) |  |  |  | able to inhibit such aggregation; also recorded: inhibit aggregate formation by hIAPP | significant ability to prevent fiber formation |  | significant increase in cell viability; also recorded: rescue living cells from the toxic effects of hIAPP |  | less aggregation-prone than Pramlintide |  | prevent hIAPP aggregation in the presence of human insulin | 
